The results in this text go back to article PMC11229374, “Unlocking the potential of protein-derived peptides to target G-quadruplex DNA: from recognition to anticancer activity” (Nucleic Acids Research, 2024).

One data set has as its system U2OS cells. The experiment in a line: Viability assay (crystal violet), U2OS. The data set is classed as cell-based. To be noted: 72 h treatment. The protocol: U2OS, HCT116 and MDA-MB-231 cells were purchased from the ATCC and grown in Dulbecco modified Eagle's medium (DMEM; EuroClone, Milan, Italy; ECM0728L) supplemented with 10% Fetal Bovine Serum (FBS, ThermoFisher Scientific/Gibco, Waltham, MA, USA; 10270-106), 2 mM L-glutamine and antibiotics in a humidified incubator at 37°C with 5% CO2 and atmospheric O2 concentration. Cell lines were authenticated and tested to be mycoplasma-free.
U2OS, HCT116, and MDA-MB-231 cells were seeded in 24-well plates at a density of 1 × 10^4, 20 × 10^3 and 12 × 10^3 for each well, respectively. After 24 h, cells were treated with the indicated peptides and incubated at 37°C for additional 72 h. Upon treatment completion, cell medium was removed, the wells were washed twice in phosphate-buffered saline (PBS) and fixed with 4% formaldehyde for 15 min at room temperature (RT). After washing, 500 μl of crystal violet staining solution (Sigma-Aldrich, St. Louis, MO, USA) was added to each well and incubated for 30 min at RT. Finally, the plates were rinsed twice with water, air-dried and cell pellets were dissolved in 400 μl of a 10% aqueous solution of acetic acid. In total, 200 μl of each sample was transferred to a 96-well plate, and the optical density was measured at 570 nm (OD570) with an ELISA reader (Thermo Scientific, Waltham, MA, USA). The average absorbance in each condition was used to calculate the viability expressed as a percentage of treated vs untreated conditions (CTR).

The subject of another data set is γH2AX in U2OS cells. As to the kind of experiment: Immunofluorescence of γH2AX (DNA damage). The data set is classed as cell-based. As to conditions: 10 μM peptide, 24 h. The protocol: To evaluate telomere-localized DNA damage, FISH assay with a telomeric probe was combined to IF staining of γH2AX. Cells were seeded on glass coverslips in a 6-well plate at a density of 1 × 10^5 cells/well. After 24 h of treatment with indicated peptides, cells were washed three times with PBS 1×, fixed with formaldehyde 4% in PBS for 2 min at RT and washed three times with PBS 1×. The fixation protocol was repeated twice and then the samples were dehydrated by sequential exposure to 70%, 90% and 100% EtOH and DNA was denatured by incubation at 80°C for 3 min in the presence of the telomere probe solution (10 mM of Tris pH 7.2, MgCl2 buffer, 70% of deionized formamide, […] of TelC-Cy3 telomeric probe (Panagene, Daejeon, Korea), 0.25% of blocking reagent). […] For quantitative analysis of γH2AX positive cells, at least 200 cells/condition were scored in triplicate. For Telomere-Induced Foci (TIFs) analysis, at least 25 γH2AX-positive cells on a single plane were scored. […] Fluorescence signals were recorded with Zeiss Laser Scanning Microscope 510 Meta (63× magnification) (Zeiss, Germany) and the experiment was analyzed with Adobe Photoshop CC 2019.

A further data set relates to BCL-2. The experiment in a line: Real-time RT-PCR of BCL-2 expression. The data set is classed as cell-based. To be noted: U2OS, 10 μM peptide, 8, 16 and 24 h. As for the experimental part:
(§1) U2OS cells were seeded on glass coverslips in a 6-well plate at a density of 2 × 10^5 cells/well and treated with the peptides for 8, 16, and 24 h. Total RNA was isolated from the cell lines using WizPrep™ Total RNA Mini Kit (Cell). The quality and the quantity of RNA extraction was assessed by evaluating the A280/A260 nm and A260/A230 nm absorbance ratio (Nanodrop 1000, Thermo Fisher Scientific). The mRNA Reverse Transcription (RT) was performed using the QuantiTect Reverse Transcription Kit (Qiagen). mRNA expression was evaluated by SYBR Green (Applied Biosystems) in the QuantStudio 6 Flex Detection system (ThermoFisher Scientific). Primer sequences are indicated in Supplementary Table S2.
On the technique in general: Quantitative PCR measures a nucleic acid by following its amplification.

Another data set concerns G4. As to the kind of experiment: CD experiments, G4-stabilizing properties of R7W conjugate versus parent. To be noted: CD experiments (Supplementary Figure S39). The data set is classed as binding. The source says: The buffer baseline was subtracted from each spectrum.
The test system of another data set is HER2. The experiment in a line: Real-time RT-PCR of HER2 expression. The class given is cell-based. As to conditions: U2OS, 10 μM peptide, 8, 16 and 24 h. As for the experimental part:
as §1

For another data set, the target named is T1, FITC-Myb397-415 (UniProt P11938 397-415).
T1 chain: {FITC-AEEA}-NHTGNSIRHRFRVYLSKRL-NH2
As to the kind of experiment: microscale thermophoresis; 5 mM KH2PO4/K2HPO4, 20 mM KCl (c-MYC stock annealed in LiCl), pH 7.0; MST 25 C with 0.1% Tween, 5% DMSO, 20 nM labelled peptide, DNA titrated (stocks from 10 or 20 uM, mixed 1:1); ITC 25 C. To be noted: tags: N-terminal FITC-O2Oc; C-terminal NH2; parallel G4. A general note: Microscale thermophoresis detects binding through changes in fluorescence in a small temperature gradient.

For a further data set, the target named is T2, FITC-MybA400 (UniProt P11938 397-415, G400A).
T2 chain: {FITC-AEEA}-NHTANSIRHRFRVYLSKRL-NH2
The experiment in a line: MST; 20 mM K+; 5 mM KH2PO4/K2HPO4 pH 7.0, 20 mM KCl (LiCl for c-MYC stock), 25 C; MST with 0.1% Tween and 5% DMSO, 20 nM FITC-peptide. To be noted: tags: N-terminal FITC; parallel G4.

In the next data set the target is T3, MybA412 (Saccharomyces cerevisiae, UniProt P11938 397-415, S412A).
T3 chain: NHTGNSIRHRFRVYLAKRL
As to the kind of experiment: isothermal titration calorimetry; 5 mM KH2PO4/K2HPO4, 20 mM KCl (c-MYC stock annealed in LiCl), pH 7.0; MST 25 C with 0.1% Tween, 5% DMSO, 20 nM labelled peptide, DNA titrated (stocks from 10 or 20 uM, mixed 1:1); ITC 25 C. To be noted: tags: N-acetyl; C-terminal NH2; chain copies: 2; parallel G4. On the technique in general: Isothermal titration calorimetry measures the heat released or taken up as one component is titrated into another.

In another data set the target is T4, MybA400 (UniProt P11938 397-415, G400A).
T4 chain: NHTANSIRHRFRVYLSKRL
Described as above. As to conditions: tags: N-acetyl; C-terminal NH2; chain copies: 2; parallel G4.

In another data set the target is T5, Myb397-415 (UniProt P11938 397-415).
T5 chain: NHTGNSIRHRFRVYLSKRL
Described as above. To be noted: tags: N-acetyl; C-terminal NH2; chain copies: 2; parallel G4.

*: point of attachment. FITC = O=C1OC2(c3ccc(O)cc3Oc3cc(O)ccc32)c2ccc(NC(=S)*)cc21; AEEA = NCCOCCOCC(=O)O

For the molecule “RRRRRRRW-GG-NHTANSIRHRFRVYLSKRL [R7W-Myb^A400, Myb^A400 N-terminally conjugated to the cell-penetrating peptide R7W via a glycine–glycine spacer]”, in the data set on U2OS cells, the “Inhibition of tumour cell growth, R7W-conjugated peptides” value was “essentially to the same extent as R7W-Myb^397–415”. Besides, the “Accumulation of phosphorylated histone H2AX (γH2AX)” value with γH2AX in U2OS cells is listed as “most pronounced response”.

On to “RRRRRRRW-GG-NHTGNSIRHRFRVYLSKRL [R7W-Myb^397–415]”, for which the IC50 in the data set with U2OS cells (read-out: IC50 (concentration of drug capable of killing 50% of cells)) is roughly 5000 nM. Also, the BCL-2 expression level result in the data set with BCL-2 is given as “transiently modulated”. In the data set on G4, the “G4-stabilizing properties compared with Myb^397–415” value is “no significant differences”. Further, the HER2 expression level entry with HER2 is recorded as “transiently modulated”.

B1: c-KIT2 (structured_DNA)
DNA: CGGGCGGGCGCTAGGGAGGGT
For the molecule B1, the Kd in the data set with FITC-Myb397-415 was 130 ± 15 nM; in the data set with FITC-MybA400, roughly 170 nM; with MybA412, 187 ± 28 nM; with MybA400 it was 137 ± 24 nM; with Myb397-415, 200 ± 12 nM.

The Kd is the concentration at which binding is half-saturated. A higher Kd goes with weaker binding.
